Measured values taken from patent US8603751B2, “Mycobacterial disease detection, treatment, and drug discovery” (priority 2006, dated 2013).
“Also recorded” adds a separate entry of the source.

Key:
Mycobacterial cells = test: Viability of Mycobacterial cells with rapamycin; conditions: rapamycin concentrations as high as 200 μg/mL
[1] = molecular target: DevS(HKD)-DevR interaction (Mycobacterium tuberculosis, UniProt P9WMF9); test: M-PFC TRIM plate assay of the DevS(HKD)-DevR interaction; type: cell-based; conditions: 10 and 25 μg/mL, TRIM plates, FIG. 12
Chain of DevS(HKD)-DevR interaction (P9WMF9 whole entry, looked up): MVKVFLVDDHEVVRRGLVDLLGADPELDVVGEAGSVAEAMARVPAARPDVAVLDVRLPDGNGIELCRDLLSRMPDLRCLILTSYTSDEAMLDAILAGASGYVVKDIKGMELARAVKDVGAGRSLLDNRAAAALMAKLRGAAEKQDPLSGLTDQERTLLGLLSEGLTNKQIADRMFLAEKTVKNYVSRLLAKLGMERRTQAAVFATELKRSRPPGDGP
Description: Additionally, whether inhibition of DevR dimerization effected upstream interactions with DevR and DevS (Rv3132c), a corresponding sensor histidine kinase involved in the Mycobacterium dormancy pathway was investigated.

[2] = molecular target: T1, Esat6-Cfp10 (Rv3875-Rv3874) interaction (Mycobacterium tuberculosis, UniProt P9WNK5+P9WNK7); test: M-PFC counter-screen with the Esat6-Cfp10 interacting pair; type: cell-based
T1 construct: The complete open reading frames (ORF) were cloned into pUAB100 and pUAB200; Gly10 linker + mDHFR fragment F[1,2]; Gly10 linker + mDHFR fragment F[3]; expressed in transfected cells; host or cells: Mycobacterium smegmatis
T1 sequence (P9WNK7 whole entry, the tested form may be a part): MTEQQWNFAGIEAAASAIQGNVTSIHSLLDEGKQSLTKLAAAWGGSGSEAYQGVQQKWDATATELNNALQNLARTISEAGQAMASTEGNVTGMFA
T1 sequence (P9WNK5 whole entry, the tested form may be a part): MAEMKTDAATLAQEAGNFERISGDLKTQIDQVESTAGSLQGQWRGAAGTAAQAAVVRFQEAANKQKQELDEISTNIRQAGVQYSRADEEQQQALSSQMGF

Msm cells = test: Effect of screened compounds on cell viability (control plates of the M-PFC screen); conditions: at high concentrations
Msm = conditions: on 7H11

Structure (SMILES): CO[C@H]1C[C@@H]2CC[C@@H](C)[C@@](O)(O2)C(=O)C(=O)N2CCCC[C@H]2C(=O)O[C@H]([C@H](C)C[C@@H]2CC[C@@H](O)[C@H](OC)C2)CC(=O)[C@H](C)/C=C(\C)[C@@H](O)[C@@H](OC)C(=O)[C@H](C)C[C@H](C)/C=C/C=C/C=C/1C [rapamycin]
- viability of the Mycobacterial cells (Mycobacterial cells): not effected

Structure (SMILES): CC(=O)NS(=O)(=O)c1ccc(NC(=O)CCc2ccccc2)cc1 [N-(4-[(acetylamino)sulfonyl]phenyl)-3-phenylpropanamide]
- disruption of the DevS(HKD)-DevR interaction [1]: disrupt the DevS(HKD)-DevR interaction; also recorded: capable of disrupting the DevS(HKD)-DevR interaction
- effect on the Esat6-Cfp10 interaction [2]: unaffected

Structure (SMILES): Cl.Cn1c(=N)n(CC(=O)c2cc(C(C)(C)C)c(O)c(C(C)(C)C)c2)c2ccccc21 [1-(3,5-di-tert-butyl-4-hydroxyphenyl)-2-(2-imino-3-methyl-2,3-dihydro-1H-benzimidazol-1-yl)ethanone hydrochloride]
- effect on cell viability (Msm cells): effect cell viability at high concentrations

Structure (SMILES): COc1cc(Cc2cnc(N)nc2N)cc(OC)c1OC [TRIM, trimethoprim]
- TRIM concentration to which Msm is sensitive (Msm): ~40 µg/mL
